From US8129396B2, “2-[1H-benzimidazol-2(3H)-ylidene]-2-(pyrimidin-2-yl)acetamides and 2-[benzothiazol-2(3H)-ylidene]-2-(pyrimidin-2-yl)acetamides as kinase inhibitors” (Telik, Inc., priority 2008, dated 2012)

What was measured:
[1] = tested on: HCT116 (human colon carcinoma) cells; assay: HCT116 cytotoxicity assay (CellTiter-Glo); type: cell-based; details: HCT-116, 72 h, cytotoxicity, three days culture, read-out: HCT116 IC50
Aurora B kinase = target: T1, Aurora B kinase (Homo sapiens, UniProt Q96GD4); assay: Aurora B kinase assay (IMAP fluorescence polarization); type: biochemical; details: 10 μM ATP; rounded to 1 significant figure; read-out: Aur-B IC50
T1 construct: purchased BPS Bioscience
In short: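 Reaction started with 100 nM fluorescein-labelled PKAtide and 10 μM ATP, run 45 min at room temperature, then stopped with IMAP binding reagent (1:400). After 30 min shaking at room temperature, fluorescence polarization read; run in duplicate with solvent control.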

VEGFR2 kinase = target: T2, VEGFR2 kinase (Homo sapiens, UniProt P35968); assay: VEGFR2 kinase assay; type: biochemical; details: 6 μM ATP, 1 mM MnCl2; rounded to 1 significant figure
T2 construct: purchased Cell Signaling Technology
In short: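 VEGFR2 phosphorylates CSKtide with 6 μM ATP and 1 mM MnCl2 for 1 hr, otherwise following the Aurora A kinase protocol. Detection by IMAP fluorescence polarization, binding reagent diluted 1:1200 in 1:1 binding buffer A/B. Run in duplicate with solvent control.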

[2] = tested on: HUVEC-2 (human umbilical vein endothelial cells); assay: HUVEC VEGF-dependent proliferation assay (BrdU); type: cell-based; details: VEGF (25 ng/mL)-dependent proliferation, read-out: HUVEC IC50
In short: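 HUVEC-2 cells on gelatin got serially diluted compound (0.5% DMSO final), and VEGF (25 ng/mL) was added 2 hr later. BrdU (10 μM) went in after one day, with labelling for another day. VEGF-dependent proliferation was read by BrdU detection, in triplicate.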

p-H3 in HCT116 cells = assay: Histone phosphorylation (p-H3) assay; type: cell-based; details: Homo sapiens, HCT-116; HCT116 cells, 4 hr incubation; read-out: p-H3 IC50
In short: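 HCT116 cells (2.5×10^4/well, attached overnight) treated 4 h with 8-point 3-fold compound dilutions at 0.5% DMSO. Lysates dot-blotted onto nitrocellulose and probed for p-H3 with β-actin on the same membrane, fluorescent secondary antibodies, Odyssey scan; duplicate wells.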

Aurora A kinase = target: T3, Aurora A kinase (Homo sapiens, UniProt O14965); assay: Aurora A kinase assay (IMAP fluorescence polarization); type: biochemical; details: 10 μM ATP; rounded to 1 significant figure; read-out: Aur-A IC50
T3 construct: purchased Upstate Biotech
T3 sequence (O14965 1-403): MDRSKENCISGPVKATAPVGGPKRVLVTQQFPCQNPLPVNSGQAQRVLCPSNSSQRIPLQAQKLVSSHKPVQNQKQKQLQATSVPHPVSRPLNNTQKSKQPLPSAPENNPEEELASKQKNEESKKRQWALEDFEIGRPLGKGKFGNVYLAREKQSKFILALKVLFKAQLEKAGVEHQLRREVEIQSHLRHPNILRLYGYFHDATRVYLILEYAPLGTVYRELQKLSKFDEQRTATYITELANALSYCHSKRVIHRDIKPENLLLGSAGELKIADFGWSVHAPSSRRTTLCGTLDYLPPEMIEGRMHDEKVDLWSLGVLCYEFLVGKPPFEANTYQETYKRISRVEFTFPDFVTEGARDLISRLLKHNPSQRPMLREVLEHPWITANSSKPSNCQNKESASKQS
In short: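 Compounds (eight 3-fold dilutions, 2.5% DMSO final) were preincubated 5 min at room temperature with Aurora A kinase in buffer with 1 mM DTT. Reaction with 100 nM fluorescein-PKAtide and 10 μM ATP ran 45 min at room temperature, then was stopped with IMAP binding reagent; fluorescence polarization was read after 30 min.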

[3] = tested on: HL60 (human promyelocytic leukemia) cells; assay: HL60 cytotoxicity assay (CellTiter-Glo); type: cell-based; details: HL-60, 72 h, cytotoxicity, three days culture, read-out: HL60 IC50
Excerpt: The cell lines HL60 (human promyelocytic leukemia) and HCT116 (human colon carcinoma) were obtained from the American Type Culture Collection, Manassas, Va., U.S.A., and HUVEC-2 (human umbilical vein endothelial cells) from BD Biosciences, Bedford, Mass., U.S.A. Aurora A kinase was obtained from Upstate Biotech, Billerica, Mass., U.S.A.; Aurora B kinase from BPS Bioscience, San Diego, Calif., U.S.A.; and VEGFR2 kinase from Cell Signaling Technology, Danvers, Mass., U.S.A. The IMAP FP Screening Express kit was obtained from Molecular Devices, Sunnyvale, Calif., U.S.A.; the CellTiter-Glo assay kit from Promega Corporation, Madison, Wis., U.S.A.; and the Cellular DNA Cytometric Analysis Reagent Kit and BrdU labeling and detection kit from Roche Diagnostics Corporation, Indianapolis, Ind., U.S.A. All products were used in accordance with manufacturer's directions. Kinase inhibition assays and the histone phosphorylation (p-H3) assay were conducted in duplicate, and the cytotoxicity and HUVEC proliferation assays were conducted in triplicate, in each case with solvent control.
Log-phase cells were trypsinized, collected by centrifugation, and resuspended in a small volume of fresh medium, and the density of viable cells was determined following Trypan Blue staining. Cells were diluted in fresh media (1×10^4 cells/mL for HL60 and 4×10^4 cells/mL for HCT116 cells), the test compounds (concentrations between 0.1 μM and 200 μM, dissolved in DMSO, 50 μL) added immediately after dilution to achieve a final DMSO concentration of 0.5%, then the suspensions added at 150 μL/well to 96-well plates, and incubated overnight to allow attachment in the case of adherent cells. The cells were cultured for three days (about three doubling times). The cells were then collected by centrifugation, and 100 μL of the culture supernatant was replaced by the CellTiter-Glo reagent. After incubation for 15 minutes at room temperature, the plate was read with a luminometer.

T1 sequence (Q96GD4 whole entry): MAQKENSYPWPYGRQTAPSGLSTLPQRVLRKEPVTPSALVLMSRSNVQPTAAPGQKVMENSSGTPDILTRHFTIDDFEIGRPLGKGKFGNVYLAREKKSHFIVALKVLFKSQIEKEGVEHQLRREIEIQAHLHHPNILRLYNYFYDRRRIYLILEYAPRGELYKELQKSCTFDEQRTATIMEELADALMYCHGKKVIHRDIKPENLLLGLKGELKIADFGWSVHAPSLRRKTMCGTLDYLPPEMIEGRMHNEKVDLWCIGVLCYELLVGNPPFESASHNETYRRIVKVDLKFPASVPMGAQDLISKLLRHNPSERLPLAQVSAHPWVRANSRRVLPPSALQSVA
T2 sequence (P35968 20-1356): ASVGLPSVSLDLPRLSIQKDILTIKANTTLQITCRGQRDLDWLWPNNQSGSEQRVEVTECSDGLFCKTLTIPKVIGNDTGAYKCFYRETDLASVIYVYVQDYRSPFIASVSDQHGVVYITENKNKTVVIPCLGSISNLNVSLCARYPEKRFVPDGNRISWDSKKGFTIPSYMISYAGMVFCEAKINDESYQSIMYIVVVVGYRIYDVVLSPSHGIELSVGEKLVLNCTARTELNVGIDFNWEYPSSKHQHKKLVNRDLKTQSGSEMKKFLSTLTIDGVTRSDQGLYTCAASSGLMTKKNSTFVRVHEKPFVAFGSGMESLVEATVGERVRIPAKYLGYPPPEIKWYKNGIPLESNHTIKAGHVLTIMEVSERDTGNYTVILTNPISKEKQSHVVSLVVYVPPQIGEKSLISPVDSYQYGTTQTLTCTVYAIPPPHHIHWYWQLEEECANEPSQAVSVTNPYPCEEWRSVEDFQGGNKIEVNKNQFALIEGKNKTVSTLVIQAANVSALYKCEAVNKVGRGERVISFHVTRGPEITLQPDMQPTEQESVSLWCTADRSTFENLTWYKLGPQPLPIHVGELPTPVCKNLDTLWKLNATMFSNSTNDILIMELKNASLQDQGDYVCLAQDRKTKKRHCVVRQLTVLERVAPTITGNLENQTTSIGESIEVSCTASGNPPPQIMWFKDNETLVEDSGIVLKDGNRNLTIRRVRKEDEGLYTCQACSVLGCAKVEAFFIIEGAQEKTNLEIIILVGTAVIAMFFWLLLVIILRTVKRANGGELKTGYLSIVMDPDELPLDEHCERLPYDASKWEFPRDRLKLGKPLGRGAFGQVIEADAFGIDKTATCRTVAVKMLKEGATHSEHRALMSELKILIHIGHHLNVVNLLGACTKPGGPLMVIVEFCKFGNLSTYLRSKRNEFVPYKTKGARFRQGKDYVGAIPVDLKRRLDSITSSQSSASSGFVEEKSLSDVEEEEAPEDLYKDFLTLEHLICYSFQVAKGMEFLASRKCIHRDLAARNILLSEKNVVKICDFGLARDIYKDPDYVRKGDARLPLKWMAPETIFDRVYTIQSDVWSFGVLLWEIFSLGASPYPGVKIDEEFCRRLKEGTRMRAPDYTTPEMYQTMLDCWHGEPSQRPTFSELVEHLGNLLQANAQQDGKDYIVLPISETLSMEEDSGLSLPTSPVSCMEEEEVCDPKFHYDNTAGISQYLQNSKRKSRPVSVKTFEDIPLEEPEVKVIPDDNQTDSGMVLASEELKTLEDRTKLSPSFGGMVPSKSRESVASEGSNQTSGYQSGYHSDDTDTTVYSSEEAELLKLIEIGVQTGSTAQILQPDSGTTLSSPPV

| Structure (SMILES) | IC50 (Aurora B kinase) [nM] | IC50 (VEGFR2 kinase) [nM] | IC50 (p-H3 in HCT116 cells) [nM] | IC50 (Aurora A kinase) [nM] | IC50 [1] [nM] | IC50 [2] [nM] | IC50 [3] [nM] |
| --- | --- | --- | --- | --- | --- | --- | --- |
| NC(=O)C(=C1Nc2ccccc2N1)c1nccc(C(F)(F)F)n1 [Compound 1A, 2-[1H-benzimidazol-2(3H)-ylidene]-2-(4-trifluoromethylpyrimidin-2-yl)acetamide] | 5 | 10 | 200 | 10 | 300 | 70 | 1000 |
| NC(=O)/C(=C1\Nc2ccccc2S1)c1nccc(C(F)(F)F)n1 [Compound 2A] | 6 | 90 | 2000 | 30 | 2000 | 50 | 3000 |
| NC(=O)/C(=C1\Nc2cc(F)c(Cl)cc2N1)c1nccc(C(F)(F)F)n1 [Compound 37A] | 20 | 400 | 500 | 30 | 2000 |  | 4000 |
| NC(=O)C(=C1Nc2cc(F)c(F)cc2N1)c1nccc(C(F)(F)F)n1 [Compound 38A] | 10 | 200 | 300 | 40 | 800 | 100 | 1000 |
| CCN(CCCN1CCOCC1)C(=O)c1ccc2c(c1)S/C(=C(/C(N)=O)c1nccc(C(F)(F)F)n1)N2 [Compound 42A] | 6 | 20 | 300 | 10 | 500 | 40 | 30 |
| NC(=O)/C(=C1\Nc2ccc(C(=O)NCCCn3ccnc3)cc2N1)c1nccc(C(F)(F)F)n1 [Compound 45A] | 7 | 20 | 900 | 20 | 500 | 10 | 100 |
| NC(=O)/C(=C1\Nc2ccc(C(=O)NCCCn3ccnc3)cc2S1)c1nccc(C(F)(F)F)n1 [Compound 46A] | 10 | 40 | 200 | 6 | 400 |  | 200 |
| NC(=O)/C(=C1\Nc2ccc(C(=O)NCCn3ccnc3)cc2S1)c1nccc(C(F)(F)F)n1 [Compound 47A] | 6 | 20 | 200 | 4 | 300 | 4 | 300 |
| CCN(CCCn1ccnc1)C(=O)c1ccc2c(c1)N/C(=C(/C(N)=O)c1nccc(C(F)(F)F)n1)N2 [Compound 48A] | 1 | 10 | 300 | 10 | 600 | 40 | 100 |
| NC(=O)/C(=C1\Nc2ccc(C(=O)NCCN3CCC(F)(F)CC3)cc2N1)c1nccc(C(F)(F)F)n1 [Compound 51A] | 6 | 20 | 300 | 7 | 500 | 30 | 50 |
| NC(=O)/C(=C1\Nc2ccc(C(=O)NCCN3CCOCC3)cc2N1)c1nccc(C(F)(F)F)n1 [Compound 53A] | 10 | 20 | 200 | 3 | 300 | 30 | 200 |
| NC(=O)/C(=C1\Nc2ccc(C(=O)NCCN3CCOCC3)cc2S1)c1nccc(C(F)(F)F)n1 [Compound 54A] | 10 | 10 | 400 | 6 | 400 | 30 | 300 |
| NC(=O)/C(=C1\Nc2ccc(C(=O)N3CCNCC3)cc2S1)c1nccc(C(F)(F)F)n1 [Compound 61A] | 10 | 4 | 30 | 20 | 100 | 20 | 200 |
| CN(C)CC(=O)Nc1ccc2c(c1)N/C(=C(/C(N)=O)c1nccc(C(F)(F)F)n1)N2 [Compound 73A] | 5 | 6 | 100 | 10 | 200 | 100 | 200 |

Second part, led by results:

| IC50 (Aurora B kinase) [nM] | IC50 (VEGFR2 kinase) [nM] | IC50 (p-H3 in HCT116 cells) [nM] | IC50 (Aurora A kinase) [nM] | Structure (SMILES) | IC50 [1] [nM] | IC50 [2] [nM] | IC50 [3] [nM] |
| --- | --- | --- | --- | --- | --- | --- | --- |
| 3 | 6 | 40 | 2 | NC(=O)/C(=C1\Nc2ccc(CCn3ccnc3)cc2N1)c1nccc(C(F)(F)F)n1 [Compound 96A] | 300 |  | 100 |
| 7 | 100 | 1000 | 20 | NC(=O)/C(=C1\Nc2ccc(CCc3cccnc3)cc2S1)c1nccc(C(F)(F)F)n1 [Compound 99A] | 3000 |  | 2000 |
| 10 | 60 | 2000 | 30 | NC(=O)/C(=C1\Nc2ccc(CCN3CCC(F)(F)CC3)cc2S1)c1nccc(C(F)(F)F)n1 [Compound 104A] | 3000 |  | 1000 |
| 20 | 40 | > 5000 | 8 | NC(=O)/C(=C1\Nc2ccc(-c3cccnc3)cc2N1)c1nccc(C(F)(F)F)n1 [Compound 107A] | 5000 |  | 1000 |
| 10 | 60 | 3000 | 10 | NC(=O)/C(=C1\Nc2ccc(-c3cccnc3)cc2S1)c1nccc(C(F)(F)F)n1 [Compound 108A] | 2000 |  | 2000 |
| 9 | 50 | > 5000 | 20 | NC(=O)/C(=C1\Nc2ccc(-c3ccccn3)cc2N1)c1nccc(C(F)(F)F)n1 [Compound 109A] | 3000 |  | 500 |
|  | 30 | 200 | 20 | Cc1cc2c(cc1C)NC(=C(C(N)=O)c1ncc(C(=O)NCCN3CCOCC3)c(C(F)(F)F)n1)N2 [Compound 136A] | 800 | 200 | 200 |
| 8 | 40 | 500 | 8 | Cc1cc(C(F)(F)F)nc(C(C(N)=O)=C2Nc3ccccc3N2)n1 [Compound 138A] | 1000 |  | 400 |
| 4 | 10 | 80 | 20 | CCN(C(=O)[C@@H]1CCCN1C)c1ccc2c(c1)N/C(=C(/C(N)=O)c1nccc(C(F)(F)F)n1)N2 [Compound 145A] | 200 |  | 400 |
